Results taken from paper PMC8478281, “Targeting the FtsZ Allosteric Binding Site with a Novel Fluorescence Polarization Screen, Cytological and Structural Approaches for Antibacterial Discovery” (Journal of Medicinal Chemistry, 2021).
Values after ≈ are worked out from the molar mass of the structure shown. Like-named read-outs stand apart in the source and are kept apart here.

Tests used:
BsFtsZ = target: T1, BsFtsZ (Bacillus subtilis, UniProt P17865); experiment: Fluorescence anisotropy of probes after consecutive additions of FtsZ, GMPCPP, MgCl2 and PC190723; type: binding; conditions: for Fluorescence anisotropy (r): free probe: probe 10 μM in buffer; for Fluorescence anisotropy (r): + FtsZ (unassbld.) / Fluorescence anisotropy (r): + GMPCPP / Fluorescence anisotropy (r): + MgCl2 (polymer): probe 10 μM, FtsZ 10 μM; for Fluorescence anisotropy (r): + GMPCPP / Fluorescence anisotropy (r): + MgCl2 (polymer): GMPCPP 0.1 mM; for Fluorescence anisotropy (r): + MgCl2 (polymer): MgCl2 10 mM, 5–10 min
T1 construct: made in house
Protocol: (A) Fluorescence anisotropy values of the free probes (10 μM) in buffer, to which FtsZ (10 μM, unassembled) was added, followed by the slowly hydrolyzable GTP analogue GMPCPP (0.1 mM). BsFtsZ polymerization was then induced by the addition of MgCl2 (10 mM) and anisotropy values were recorded 5–10 min later. Nonfluorescent PC190723 (10 μM) was subsequently added to displace the fluorescent probe and anisotropy was measured 5 min later. (B) Fluorescence microscopy images of B. subtilis cells treated for 1.5 h with the minimal division inhibitory concentrations (MDC) of (S)-2 and each enantiomer of 5 (Table S1), acquired employing the probe fluorescence.
(§1) FtsZ from B. subtilis (BsFtsZ) was prepared as described previously.[35] FtsZ was assembled in 50 mM N-(2-hydroxyethyl)piperazine-N′-ethanesulfonic acid (HEPES)-KOH, 50 mM KCl, 1 mM ethylenediaminetetraacetic acid (EDTA), pH 6.8 (HEPES buffer) plus 10 mM MgCl2, and 1 mM GTP or 0.1 mM GMPCPP at 25 °C. FtsZ assembly was monitored by light scattering.[34]

[1] = target: T2, FtsZ-GMPCPP polymers (BsFtsZ) (Bacillus subtilis, UniProt P17865); experiment: Binding titration of the fluorescent probes to FtsZ polymers by fluorescence anisotropy; conditions: for Imax/Imin / rmax (all probe bound) / rmin (free probe) / Kd: FtsZ-GMPCPP polymers, best fit values from binding titrations
T2 construct: made in house
Protocol: as §1
The fluorescence spectra and anisotropy values of the different probes were acquired with a Fluoromax-4 (Horiba Jobin Yvon) photon-counting L-format spectrofluorometer using 2 mm × 10 mm cells at 25 °C, employing the maximum excitation and emission wavelength for each probe with 2 and 5 nm bandwidths, respectively. Anisotropy values were automatically measured as r = (Ivv – G Ivh)/(Ivv + 2G Ivh), where the subscripts refer to the vertical (v) or horizontal (h) positions of the excitation (first subscript) and emission (second subscript) polarizers, and G = Ihv/Ihh. Total intensity values were simultaneously determined as IT = Ivv +2G Ivh. Note that measurement correction procedures with T-format (double channel) fluorometers and with plate readers are slightly different.
(§2) FtsZ (10–15 μM) was assembled in HEPES buffer, 10 mM MgCl2, 50 μM GMPCPP at 25 °C for 10 min, and then 0.15% (v/v) glutaraldehyde[36] (distilled grade for microscopy, TAAB Laboratories, U.K.) was added to the solution that was incubated at 25 °C for 10 min more. (This was the minimal glutaraldehyde concentration determined to stabilize FtsZ polymers specifically binding probe 1.) The remains of the cross-linking agent were quenched by adding 60 mM NaBH4, the sample was incubated on ice for 10 min and degassed.[36] Cross-linked polymers were centrifuged for 10 min at 8200g (5000 rpm) and 4 °C in 15 mL Falcon tubes employing a Rotina 380R (Hettich) centrifuge, the supernatant was removed and the pellet was resuspended in the same volume of HEPES buffer, 10 mM MgCl2, containing 5 μM GMPCPP. Fixed FtsZ polymers were active in binding assays after more than 2 days at 4 °C; they could also be frozen in liquid nitrogen with a small loss of binding capacity. […] Cross-linked polymers of SaFtsZ were similarly prepared.
Binding affinity of the probes to FtsZ was measured by an increase in anisotropy of the probe (adapted from ref ([49])). Fixed concentrations of the probes (3 μM) were titrated with different FtsZ polymer concentrations (0–40 μM) in HEPES buffer with Mg^2+, to obtain the anisotropy increment, Δrmax, corresponding to the bound probe. The increase in anisotropy was plotted against the FtsZ polymer concentration (calculated by subtracting from the total protein concentration the critical concentration for polymerization under the same conditions) and iteratively least-squares fitted with an isotherm of binding to one site. The estimated values of Δrmax were used to approximate the free FtsZ concentrations, and these new values were employed again until an unchanging Δrmax value was obtained. The convergent data were used to calculate the binding constant of the fluorescent probe to FtsZ polymers (Table S1).

B. subtilis [2] = experiment: Minimal division inhibitory concentration and cell division phenotype, B. subtilis; type: cell-based, Bacillus subtilis; conditions: for toxicity to the bacterial cells, in words: B. subtilis cell division tests; for minimal effective concentration: Bacillus subtilis, read-out: MDC B. subtilis
Protocol: (§3) B. subtilis 168 and Staphylococcus spp. were grown in cation adjusted Mueller–Hinton broth (CAMHB; Becton, Dickinson and Company) at 37 °C. B. subtilis SU570 were grown in the same medium at 30 °C. In all cases, the cells were grown to an absorbance of 0.1–0.2 at 600 nm and then incubated either with the compounds or DMSO vehicle. Microscopy assays and cell measurement were performed as previously described.[31] MIC values were determined by a broth macrodilution method.[51] MBC values were determined as the lowest concentration of inhibitor at which there was a 99.9% reduction in colony-forming units/mL compared to the inoculum. To construct a S. aureus strain expressing FtsZ-mCherry, the plasmid pCN-ftsZmch[9] was electroporated into RN4220 and 0.1 μM cadmium chloride (Sigma-Aldrich) was used to induce the expression of the construct under the control of the Pcad promoter.

B. subtilis [3] = experiment: Minimal growth inhibitory concentration (broth macrodilution), B. subtilis; type: cell-based, Bacillus subtilis; conditions: for MIC B. subtilis: Table S1, fluorescent probes; for MIC: Bacillus subtilis
Protocol: as §3

S. aureus Mu50 = experiment: Minimal growth inhibitory concentration (broth macrodilution), S. aureus Mu50; type: cell-based, Staphylococcus aureus; conditions: for MIC S. aureus Mu50: Table S1, fluorescent probes; for MIC: Staphylococcus aureus, MU50, read-out: MIC S. aureus Mu50
Protocol: as §3

[4] = Solubility in HEPES buffer with 2% DMSO, spectrophotometric; type: physicochemical; conditions: HEPES buffer containing 2% DMSO, 25 °C, aqueous buffer, kinetic from dmso stock; HEPES buffer pH 6.8 containing 2% DMSO
Protocol: 3.2. Solubility of Compounds. Stock solutions of compounds were prepared in
DMSO (spectroscopic grade, Merck) a nd stored at -20 °C. Compound solubility in 50
mM HEPES-KOH, 50 mM KCl, 1 mM EDTA, pH 6.8 (HEPES buffer) containing 2%
DMSO was determined spectrophotometrically, monitoring the linear correlation
between the absorbance and the compound concentration and the absence of light
scattering. The solutions were optionally centrifuged at 100000 rpm for 20 min at 25 °C
in a TLA100 rotor with a Beckman Optima Max -XP ultracentrifuge.

[5] = target: T3, stabilized polymers of FtsZ from B. subtilis (Bacillus subtilis, UniProt P17865); experiment: Competition assay: displacement of probe (R)-5 from stabilized BsFtsZ-GMPCPP polymers; type: binding; conditions: for Kd: stabilized polymers of FtsZ from B. subtilis, probe (R)-5, mean ± SEM, read-out: KD
T3 construct: made in house
Protocol: as §2
Competition assays were performed by measuring, through the decrease in fluorescence anisotropy, the displacement of the fluorescent probes from stabilized FtsZ polymers. Increasing concentrations of competing ligands were added to the mixtures of cross-linked FtsZ polymers (10–15 μM) with probe 1 (3 μM), 7–8 μM FtsZ polymers with probe (S)-2 (3 μM), or 2–3 μM FtsZ polymers with (R)-5 (3 μM). HEPES buffer with 10 mM MgCl2 and 0.1 mM GMPCPP was employed, with a final volume of 0.5 mL, and the anisotropy measured at 25 °C. Under these conditions, the initial fraction of the probe bound was between 0.4 and 0.5. The fraction of the probe bound (Vb) was calculated [drawing 1] where rfree and rmax are the anisotropy values of the free and bound probes, respectively, and R is the ratio between the fluorescence intensities of the bound and free probe (Table S1). The binding data were plotted against the competing ligand concentration and fitted by competition equilibrium of the ligand and the probe for the same binding site. The resulting system of equations[50] was numerically solved using the Equigra v. 5.0 program,[33] which provided the best-fitted value of the competitor binding constant.

[6] = PC190723 10 μM added to the polymer, 5 min

T1 sequence (P17865 whole entry): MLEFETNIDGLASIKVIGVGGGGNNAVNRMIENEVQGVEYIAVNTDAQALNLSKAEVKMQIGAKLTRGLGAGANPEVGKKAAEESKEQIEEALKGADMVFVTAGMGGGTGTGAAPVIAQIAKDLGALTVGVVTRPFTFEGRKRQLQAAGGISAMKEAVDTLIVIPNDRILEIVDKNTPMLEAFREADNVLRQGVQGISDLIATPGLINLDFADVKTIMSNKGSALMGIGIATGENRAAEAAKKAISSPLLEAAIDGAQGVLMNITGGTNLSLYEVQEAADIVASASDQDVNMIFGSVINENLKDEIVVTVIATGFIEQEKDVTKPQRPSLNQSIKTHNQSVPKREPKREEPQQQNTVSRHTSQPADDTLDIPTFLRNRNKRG
T3 sequence (P17865 whole entry): as above
T2 sequence (P17865 whole entry): as above

Molecule | Fluorescence anisotropy (r): + PC190723 (BsFtsZ; [6]) | Fluorescence anisotropy (r): free probe (BsFtsZ) | Fluorescence anisotropy (r): + FtsZ (unassbld.) (BsFtsZ) | Fluorescence anisotropy (r): + GMPCPP (BsFtsZ) | Fluorescence anisotropy (r): + MgCl2 (polymer) (BsFtsZ) | solubility [4] [µM] | Kd [5] [µM] | minimal effective concentration (B. subtilis [2]) [µM] | MIC (B. subtilis [3]; read-out: MIC B. subtilis) [µM] | MIC (S. aureus Mu50) [µM] | further results
2,6-Difluoro-3-[(1-{[(7-nitro-2,1,3-benzoxadiazol-4-yl)amino]methyl}nonyl)-oxy]benzamide [Compound 4] | 0.324 | 0.045 | 0.130 | 0.186 | 0.317 | – | – | – | – | – | –
CCC[C@H](CNc1ccc([N+](=O)[O-])c2nonc12)Oc1ccc(F)c(C(N)=O)c1F [(R)-2] | 0.051 | 0.037 | 0.046 | 0.050 | 0.081 | – | – | – | – | – | Imax/Imin [1]: 1.0; rmax (all probe bound) [1]: 0.067; rmin (free probe) [1]: 0.038; inhibition of B. subtilis cell division, in words (B. subtilis [2]): inactive; MIC B. subtilis (B. subtilis [3]): > 250 µM; MIC S. aureus Mu50 (S. aureus Mu50): > 250 µM
CCC[C@@H](CNc1ccc([N+](=O)[O-])c2nonc12)Oc1ccc(F)c(C(N)=O)c1F [(S)-2] | 0.065 | 0.037 | 0.041 | 0.044 | 0.172 | – | – | – | – | – | Imax/Imin [1]: 2.4; rmax (all probe bound) [1]: 0.258; rmin (free probe) [1]: 0.028; Kd [1]: 8 ± 1 µM; MIC B. subtilis (B. subtilis [3]): 250 µM (≈ 105 µg/mL); MIC S. aureus Mu50 (S. aureus Mu50): > 250 µM
CCC[C@@H](COc1ccc(F)c(C(N)=O)c1F)Nc1ccc([N+](=O)[O-])c2nonc12 [(S)-5] | 0.038 | 0.030 | 0.042 | 0.041 | 0.096 | – | – | – | – | – | fold reduced affinity with respect to (R)-5 [1]: 8 fold; Imax/Imin [1]: 1.7; rmax (all probe bound) [1]: 0.178; rmin (free probe) [1]: 0.025; Kd [1]: 15 ± 2 µM; MIC B. subtilis (B. subtilis [3]): 250 µM (≈ 105 µg/mL); MIC S. aureus Mu50 (S. aureus Mu50): > 250 µM
CCCC(CNc1ccc([N+](=O)[O-])c2nonc12)Oc1ccc(F)c(C(N)=O)c1F (stereo not drawn) [Compound 2, 2,6-Difluoro-3-[(1-{[(7-nitro-2,1,3-benzoxadiazol-4-yl)amino]methyl}butyl)oxy]benzamide] | 0.053 | 0.037 | 0.039 | 0.046 | 0.157 | – | – | – | – | – | –
CCCCCC(CNc1ccc([N+](=O)[O-])c2nonc12)Oc1ccc(F)c(C(N)=O)c1F (stereo not drawn) [Compound 3, 2,6-Difluoro-3-[(1-{[(7-nitro-2,1,3-benzoxadiazol-4-yl)amino]methyl}hexyl)oxy]benzamide] | 0.135 | 0.049 | 0.104 | 0.115 | 0.261 | – | – | – | – | – | –
CCCC(COc1ccc(F)c(C(N)=O)c1F)Nc1ccc([N+](=O)[O-])c2nonc12 (stereo not drawn) [Compound 5, 2,6-Difluoro-3-{2-[(4-nitro-2,1,3-benzoxadiazol-7-yl)amino]pentoxy}benzamide] | – | 0.031 | 0.034 | 0.036 | 0.203 | – | – | – | – | – | Fluorescence anisotropy (r): + PC190723 (BsFtsZ; [PC190723] = 30 μM): 0.055
CCCN(Cc1cccc(Cl)c1)c1cccc(C(N)=O)c1 [Compound 8] | – | – | – | – | – | 5 (≈ 1.51 µg/mL) | – | – | – | – | toxicity to the bacterial cells, in words (B. subtilis [2]): toxic to the bacterial cells
NC(=O)c1cccc(OCc2cccc(Cl)c2)c1 [Compound 11] | – | – | – | – | – | 100 (≈ 26.2 µg/mL) | 9.3 ± 0.5 | 50 | 50 (≈ 13.1 µg/mL) | > 100 | fold lower KD and MDC than 3-aminobenzamide analogue 6 [5]: more than 10 fold
NC(=O)c1cccc(OCCc2cccc(Cl)c2)c1 [Compound 12] | – | – | – | – | – | ≥ 100 | 7.1 ± 0.5 | 50 | 100 (≈ 27.6 µg/mL) | > 100 | –
NC(=O)c1cccc(OCCCc2cccc(Cl)c2)c1 [Compound 13] | – | – | – | – | – | 25 (≈ 7.24 µg/mL) | 9.5 ± 0.5 | 25 | 100 (≈ 29 µg/mL) | > 100 | –
NC(=O)c1ccc(OCc2cccc(Cl)c2)cc1 [Compound 14] | – | – | – | – | – | – | – | – | – | – | toxicity to the bacterial cells, in words (B. subtilis [2]): toxic; MIC (B. subtilis [3]): > 500 µM
NC(=O)c1c(F)ccc(OCc2ccccc2C(F)(F)F)c1F [Compound 19] | – | – | – | – | – | 50 (≈ 16.6 µg/mL) | 71 ± 6 | > 100 | > 100 | > 100 | –
NC(=O)c1c(F)ccc(OCc2ccc(C(F)(F)F)cc2)c1F [Compound 21] | – | – | – | – | – | 100 (≈ 33.1 µg/mL) | 6.7 ± 0.4 | 25 | 50 (≈ 16.6 µg/mL) | 100 (≈ 33.1 µg/mL) | –
